Results on seven molecules are retold here after patent US20210130420A1, “RECOMBINANT BINDING PROTEINS TARGETING HER2 AND SERUM ALBUMIN, AND THEIR USES” (Molecular Partners AG, priority 2016, published 2021).

Series [1] relates to MDA-MB175 cells. Kind of series: MDA-MB175 cell proliferation, BrdU-labeling. It counts as cell-based. The settings on record: for IC50: compound alone or titrated on top of 4 nM Protein #21-His, read-out: cell proliferation inhibition constant IC50, MDA-MB175. The method, then: (§1) Protein #21 and Protein #21-His were expressed and purified as described in Example 1. Standard BrdU cell proliferation assays were performed, well-known to the person skilled in the art. Briefly, effects on cell proliferation of Protein #21-His, other compounds, or Protein #21-His in combination with other compounds, were determined by measuring DNA synthesis using BrdU-labeling (BrdU, Cell Proliferation ELISA, Roche). Briefly, 10000 cells were seeded per well in a 96 well plate in 100 μl complete medium and incubated for 24 hours. Protein #21-His and/or compounds were added for an additional 72 hours. BrdU for cell labeling was added for the last 24 hours. Labeled (proliferating) cells were detected according to the manufactures protocol. The data were analyzed using the Graph Pad prism software (log [c] vs. OD450-602 nm plot). Data were fitted using a non-linear regression fit (log(antagonist) vs. response—variable slope (four parameters)).

Series [2] relates to BT474 cells. Kind of series: BT474 cell proliferation, BrdU-labeling. Format: cell-based, human. Particulars: for IC50: Homo sapiens, BT-474, compound alone or titrated on top of 2 nM Protein #21-His, read-out: cell proliferation inhibition constant IC50, BT474. As for the experimental part:
Protein #21-His and Protein #23-His, were expressed and purified as described in Example 1. Effects of the recombinant binding proteins on BT474 cell proliferation were determined by measuring DNA synthesis using BrdU-labeling (BrdU, Cell Proliferation ELISA, Roche). Briefly, 10000 BT474 cells were seeded per well in a 96 well plate in 100 ul complete medium and incubated for 24 hours. Recombinant binding proteins or controls were added for an additional 72 hours. BrdU for cell labeling was added for the last 24 hours. Labeled (proliferating) cells were detected according to the manufactures protocol. The data were analyzed using the GraphPad prism software, plotting log [c] on the x-axis against OD450-602 nm on the y-axis. Data were fitted using a non-linear regression fit (log(antagonist) vs. response—Variable slope (four parameters)) deriving IC50 values.
as §1

Series [3] is described as follows: Pharmacokinetic analysis in cynomolgus monkey. Format: in vivo. Particulars: 1 mg/kg, intravenous infusion. As for the experimental part:
The measurements shown in this example are the result of a half-life engineering effort as described in Example 11. Protein #21-His, Protein #23-His, and Protein #24-His were expressed and purified as described in Example 1. The pharmacokinetic properties of the proteins were assessed in cynomolgus monkey. Proteins were administered via intravenous infusion for 30 min at a target dose level of between 1 mg/kg to cynomolgus monkeys. Blood samples were collected pre-dose and again at selected time points, for example 5 min, 10 min, 0.5 hours, 1 hour, 2 hours, 4 hours, 8 hours, 12 hours, 24 hours, 48 hours, 72 hours, 96 hours, 120 hours, 144 hours, 168 hours, 192 hours, 216 hours, and 240 hours post-end of infusion (i.e. post-injection). The blood samples were allowed to stand at room temperature and were centrifuged to generate serum, followed by storage at −80° C. pending analyses. Pharmacokinetic parameters were determined using procedures well known to the person skilled in the art. Serum concentrations of proteins were determined by sandwich ELISA using a rabbit monoclonal anti-designed ankyrin repeat domain antibody as capture reagent and murine monoclonal anti-designed ankyrin repeat domain antibody as detection reagent, and using a standard curve. Pharmacokinetic parameters were determined using standard software such as Phoenix WinNonLin (Certara, Princeton, USA) or Graph Pad Prism (GraphPad Software, La Jolla, USA) and standard analyses such as non-compartmental analyses. […] Target mediated clearance is well-known to the person skilled in the art and is known from e.g. antibodies targeting HER2.
Similarly, Protein #21-His was expressed and purified as described in Example 1. The pharmacokinetic properties of the proteins were assessed in cynomolgus monkey as described above at 1 mg/kg, 5 mg/kg and 10 mg/kg.
Similar results are observed when testing Protein #21 (expressed and purified as described in Example 1). The pharmacokinetic properties of the proteins are assessed in cynomolgus monkey as described above at 1 mg/kg, 10 mg/kg and 100 mg/kg. Pharmacokinetic parameters are evaluated as described above.
(§2) For the studies in this example Protein #21-His, Protein #24-His, Protein #28-His, Protein #29-His, and Protein #30-His were prepared according to Example 1. Protein #28-His was additionally PEGylated using a 40 kDa PEG moiety (NOF Sunbright GL2-400MA) by maleimid coupling of the PEG-moiety onto the free C-terminal cysteine of Protein #28-His, followed by purification to homogeneity using standard purification methods, procedures well known to the person skilled in the art. Pharmacokinetic analyses in mouse or cynomolgus monkey were performed as described in Examples 8 and 9.

Series [4] can be described thus: Storage stability in PBS analysed by size-exclusion chromatography. It counts as physicochemical. The settings on record: 10 mg/ml in PBS, 1 month at −80° C. As for the experimental part:
A storage stability improvement is also observed, when testing the storage stability of Protein #21 and Protein #22 (recombinant binding proteins consisting of the amino acid sequences corresponding to SEQ ID NOs: 21 and 22, respectively). Protein #21 and Protein #22 are prepared as described in Example 1, samples are concentrated to 10 mg/ml in PBS and stored for 1 month at −80° C. in or at 40° C. in glass vials, followed by analysis on standard size-exclusion chromatography.

Series [5] can be described thus: Pharmacokinetic analysis in mouse. Format: in vivo. The method, then: The measurements shown in this example are the result of a half-life engineering effort as described in Example 11. Protein #21-His and Protein #23-His were expressed and purified as described in Example 1. The pharmacokinetic properties of the His-tagged proteins were assessed in mouse as described elsewhere (Zahnd, C., Kawe, M., Stumpp, M. T., de Pasquale, C., Tamaskovic, R., Nagy-Davidescu, G., Dreier, B., Schibli, R., Binz, H. K., Waibel, R., Plückthun, A., Cancer Res. 70, 1595-1605, 2010). […] Having SEQ ID NO: 16 present in the recombinant binding protein thus appears to be more favorable than having SEQ ID NO: 18 present.
Polypeptide linkers that link protein domains are well-known to the person skilled in the art. Gly-Ser-rich linkers are well-known from single-chain Fv antibody fragments, where they have proven to be most appropriate to link the two Fv polypeptide chains. […] Protein #26-His and Protein #27-His, were expressed and purified as described in Example 1. Pharmacokinetic analyses in mouse were performed as described in Example 8.
as §2

As to `C=C1C[C@@H]2CC[C@@]34C[C@H]5O[C@H]6[C@@H](O3)[C@H]3O[C@H](CC[C@@H]3O[C@H]6[C@H]5O4)CC(=O)C[C@@H]3[C@@H](OC)[C@@H](C[C@H](O)CN)O[C@H]3C[C@H]3O[C@@H](CC[C@@H]1O2)C[C@@H](C)C3=C` [Eribulin], the IC50 in series [1] amounted to 104 nM. The “inhibition of MDA-MB175 cell proliferation, in words” value in series [1] (single agent or on top of suboptimal Protein #21-His (4 nM) or Protein #21 (10 nM)) is “very low potency”. For the same molecule, in series [2] (single agent or on top of suboptimal Protein #21-His (2 nM) or Protein #21 (1 nM)), the “inhibition of BT474 cell proliferation, in words” value is “not active”.

For the molecule `CO[C@H]1C[C@@H]2CC[C@@H](C)[C@@](O)(O2)C(=O)C(=O)N2CCCC[C@H]2C(=O)O[C@H]([C@H](C)C[C@@H]2CC[C@@H](OCCO)[C@H](OC)C2)CC(=O)[C@H](C)/C=C(\C)[C@@H](O)[C@@H](OC)C(=O)[C@H](C)C[C@H](C)/C=C/C=C/C=C/1C` [Everolimus], the IC50 in series [1] was 263000 nM.

With `CS(=O)(=O)N1CCN(Cc2cc3nc(-c4cccc5[nH]ncc45)nc(N4CCOCC4)c3s2)CC1` [GDC-0941], the IC50 in series [1] is 203 nM; in series [2], 176 nM.

As to `CS(=O)(=O)CCNCc1ccc(-c2ccc3ncnc(Nc4ccc(OCc5cccc(F)c5)c(Cl)c4)c3c2)o1` [Lapatinib], the figures for the IC50 in series [1] and in series [2] were 2810 nM and 765 nM, respectively.

B1: Protein #24-His: SEQ ID NO: 24 with a His-tag (SEQ ID NO: 1) fused to its N terminus (protein)
chain: MRGSHHHHHHGSDLGKKLLEAARAGQDDEVRELLKAGADVNAKDYFSHTPLHLAARNGHLKIVEVLLKAGADVNAKDFAGKTPLHLAANEGHLEIVEVLLKAGADVNAQDIFGKTPADIAADAGHEDIAEVLQKAAGSPTPTPTTPTPTPTTPTPTPTGSDLGKKLLEAARAGQDDEVRELLKAGADVNAKDYFSHTPLHLAARNGHLKIVEVLLKAGADVNAKDFAGKTPLHLAANEGHLEIVEVLLKAGADVNAQDIFGKTPADIAADAGHEDIAEVLQKAAGSPTPTPTTPTPTPTTPTPTPTGSDLGIKLLFAAAKGQDDEVRELLKAGADVNAKDFQGVTPLHIAAQSGHLEIVEVLLKAGADVNAKDVTGDTPLHLAAQHGHLEIVEVLLKAGADVNAQDERGWTPADLAADWGHEDIAEVLQKAAGSPTPTPTTPTPTPTTPTPTPTGSDLGKKLLEAARAGQDDEVRELLKAGADVNAKDEYGLTPLYLATAHGHLEIVEVLLKAGADVNAVDAIGFTPLHLAAFIGHLEIAEVLLKAGADVNAQDKFGKTPADIAAGAGNEDIAEVLQKAA
modifications: His-tag; Protein comprising four designed ankyrin repeat domains
Regarding B1, in series [3], the terminal half-life was determined as 45 h.

B2: Protein #22: SEQ ID NO: 22; corresponding recombinant binding protein with serum albumin binding domains of SEQ ID NO: 13 (protein)
chain: GSDLGKKLLEAARAGQDDEVRELLKAGADVNAKDYFSHTPLHLAARNGHLKIVEVLLKAGADVNAKDFAGKTPLHLAANDGHLEIVEVLLKAGADVNAQDIFGKTPADIAADAGHEDIAEVLQKAAGSPTPTPTTPTPTPTTPTPTPTGSDLGIKLLFAAAKGQDDEVRELLKAGADVNAKDFQGVTPLHIAAQSGHLEIVEVLLKAGADVNAKDVTGDTPLHLAAQHGHLEIVEVLLKAGADVNAQDERGWTPADLAADWGHEDIAEVLQKAAGSPTPTPTTPTPTPTTPTPTPTGSDLGKKLLEAARAGQDDEVRELLKAGADVNAKDEYGLTPLYLATAHGHLEIVEVLLKAGADVNAVDAIGFTPLHLAAFIGHLEIAEVLLKAGADVNAQDKFGKTPADIAAGAGNEDIAEVLQKAAGSPTPTPTTPTPTPTTPTPTPTGSDLGKKLLEAARAGQDDEVRELLKAGADVNAKDYFSHTPLHLAARNGHLKIVEVLLKAGADVNAKDFAGKTPLHLAANDGHLEIVEVLLKAGADVNAQDIFGKTPADIAADAGHEDIAEVLQKAA
modifications: Protein comprising four designed ankyrin repeat domains
With B2, the “elution profiles upon storage at −80° C.” value in series [4] is reported as “equivalent elution profiles”.

B3: Protein #23-His: SEQ ID NO: 23 with a His-tag (SEQ ID NO: 1) fused to its N terminus (protein)
chain: MRGSHHHHHHGSDLGKKLLEAARAGQDDEVRELLKAGADVNAKDYFSHTPLHLAARNGHLKIVEVLLKAGADVNAKDFAGKTPLHLAANEGHLEIVEVLLKAGADVNAQDIFGKTPADIAADAGHEDIAEVLQKAAGSPTPTPTTPTPTPTTPTPTPTGSDLGVKLLWAAARGQDDEVRELLKAGADVNAKDFQGITPLHIAATNGHLEIVEVLLKAGADVNAKDITGETPLHHAADSGHLEIVEVLLKAGADVNAQDKAGVTPADLAAAWGHEDIAEVLQKAAGSPTPTPTTPTPTPTTPTPTPTGSDLGKKLLEAARAGQDDEVRELLKAGADVNAKDEYGLTPLYLATAHGHLEIVEVLLKAGADVNAVDAIGFTPLHLAAFIGHLEIAEVLLKAGADVNAQDKFGKTPADIAAGAGNEDIAEVLQKAAGSPTPTPTTPTPTPTTPTPTPTGSDLGKKLLEAARAGQDDEVRELLKAGADVNAKDYFSHTPLHLAARNGHLKIVEVLLKAGADVNAKDFAGKTPLHLAANEGHLEIVEVLLKAGADVNAQDIFGKTPADIAADAGHEDIAEVLQKAA
modifications: His-tag; Protein comprising four designed ankyrin repeat domains
In series [3], B3 registered a terminal half-life of 35 h. Also, in series [2] (BT474 proliferation), the “IC50 higher than that of Protein #21-His” value is 60%. In series [5], the “% ID remaining after 48 hours” value is recorded as 6.5 % ID and the terminal half-life was determined as 24.7 h.
